Laboratory results from patent publication US12447186B2, “Traditional Chinese medicine compound composition with anti-anxiety effect and preparation method and applications thereof” (Chenland Nutritionals Inc., priority 2020, dated 2025).

How the values were obtained:
[1] = test system: mice; assay: Open field test; type: in vivo; conditions: 6 min, Diazepam 2 mg/kg
Description: (§1) After the mice arrived, they were acclimatized for a week to enter the experiment. There were 12 mice in each group.
(§2) The normal group mice were gavaged with the same volume of purified water, and the gavage doses of other groups were illustrated in the results table section below. The mice were gavaged every morning at fixed time (9:00) with a gavage volume of 0.1 ml·10 g^−1. the administration lasted for one month, and behavioral assays were performed 1 h after the last gavage.
The test was performed inside an open field box with 50 cm long, 50 cm wide, and 50 cm deep. The bottom of the open field box was equally divided into nine squares, with the right middle area being the central area and the remaining area being the peripheral area. The bottom and surrounding of the open field box were all white. The test was performed in a quiet weak red light environment. At the beginning, the mice were placed in the center of the open field box, and the activity within 6 minutes was observed. Total running distance, running distance in central area and number of entries into central area of the mice were recorded.

[2] = test system: mice; assay: Light-dark box test; type: in vivo; conditions: gavage one month, 5 min, Diazepam 2 mg/kg
Description: as §1, §2
The light and dark box is composed of an integral box which is divided into two compartments (light area and dark area) of the same size (L×w×H=25 cm×25 cm×30 cm) by a middle gate (6.5 cm×6.5 cm). The light area is illuminated by white light, and the dark area is illuminated by red light. At the beginning of the test, each mouse was placed in the center of the light area facing the partition wall, and the middle gate was removed. Once four claws of one mouse entered the compartment, it was recorded as one entry. Supermaze software was used to record the distance in light area, retention time in light area and number of entries into light area in 5 minutes.

CN1C(=O)CN=C(c2ccccc2)c2cc(Cl)ccc21 [Diazepam]
Total running distance ([1]; gavage daily for one month, 1 h after last gavage): 29927 ± 2380
Number of entries into central area ([1]; gavage one month): 12.78 ± 1.498
Running distance in central area ([1]; gavage one month): 2168 ± 218.6
Distance in light area [2]: 18141 ± 1011
Number of entries into light area [2]: 18.92 ± 1.540
